Measured values as given in ChEMBL document CHEMBL1201862, “PubChem BioAssay data set” (2004).
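How tested: cells in 96-well plates exposed to compound for 48 hours at five concentrations. GI50 = concentration required for 50% inhibition of growth.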 Activity calls are given as the source filed them. Rule as the data show it: active = GI50 up to about 1.1 µM and inactive = higher.

How the values were obtained:
Assay in all cases: inhibition of tumour cell growth, NCI panel, 48 h
HCT-15 = tested on: HCT-15
PC-3 = tested on: PC-3
U-251 = tested on: U-251
COLO 205 = tested on: COLO 205
MDA-MB-435 = tested on: MDA-MB-435
NCI-H226 = tested on: NCI-H226
OVCAR-8 = tested on: OVCAR-8
OVCAR-4 = tested on: OVCAR-4
SF-539 = tested on: SF-539
SK-MEL-28 = tested on: SK-MEL-28
HT-29 = tested on: HT-29
LOX IMVI = tested on: LOX IMVI
SK-OV-3 = tested on: SK-OV-3
SW-620 = tested on: SW-620
CAKI-1 = tested on: CAKI-1
HOP-92 = tested on: HOP-92
SF-268 = tested on: SF-268
MCF7 = tested on: MCF7
UO-31 = tested on: UO-31
786-0 = tested on: 786-0

Measured: GI50

CCCCCCC(=O)c1ccc2ccccc2c1O
inactive: PC-3 61 µM | U-251 > 100 µM | COLO 205 66.1 µM | MDA-MB-435 69.2 µM | NCI-H226 40.1 µM | OVCAR-8 41.7 µM | OVCAR-4 > 100 µM | SF-539 52.7 µM | SK-MEL-28 > 100 µM | HT-29 25.1 µM | LOX IMVI 42.1 µM | SK-OV-3 52.4 µM | SW-620 64.7 µM | CAKI-1 43.2 µM | HOP-92 93.3 µM | SF-268 34.2 µM | MCF7 33.4 µM | UO-31 47.6 µM | 786-0 38.8 µM
32.8 µM: HCT-15

CC(C)(C)C1CCC2c3c([nH]c4ccccc34)C3C(=O)N(c4cccc([N+](=O)[O-])c4)C(=O)C3C2C1 (stereo not given)
inactive: PC-3 27 µM | U-251 > 100 µM | COLO 205 21.2 µM | MDA-MB-435 16.1 µM | NCI-H226 25.4 µM | OVCAR-8 25.7 µM | OVCAR-4 25.5 µM | SF-539 49.9 µM | SK-MEL-28 21 µM | HT-29 17.7 µM | LOX IMVI 17.8 µM | SK-OV-3 > 100 µM | SW-620 57.8 µM | CAKI-1 19.6 µM | HOP-92 61.5 µM | SF-268 21 µM | MCF7 32.5 µM | UO-31 35.2 µM | 786-0 17.4 µM
37.1 µM: HCT-15

OC(c1cc2ccccc2o1)c1cc2ccccc2s1 (stereo not given)
inactive: PC-3 8.57 µM | U-251 > 10 µM | COLO 205 > 10 µM | MDA-MB-435 3.78 µM | NCI-H226 > 10 µM | OVCAR-8 > 10 µM | OVCAR-4 > 10 µM | SF-539 > 10 µM | SK-MEL-28 > 10 µM | HT-29 > 10 µM | LOX IMVI > 10 µM | SK-OV-3 > 10 µM | SW-620 > 10 µM | CAKI-1 > 10 µM | HOP-92 > 10 µM | SF-268 > 10 µM | MCF7 9.44 µM | UO-31 > 10 µM | 786-0 > 10 µM
> 10 µM: HCT-15

CC1(C)CCCCCCCCCC(C)(CCCCCCCCCCCCO)C1=O (stereo not given)
inactive: PC-3 17.4 µM | U-251 17.8 µM | COLO 205 28.6 µM | MDA-MB-435 17.7 µM | NCI-H226 9.84 µM | OVCAR-8 14.5 µM | OVCAR-4 17.1 µM | SF-539 16.6 µM | SK-MEL-28 18.2 µM | HT-29 16.9 µM | LOX IMVI 17.6 µM | SK-OV-3 18.8 µM | SW-620 18.3 µM | CAKI-1 20.7 µM | HOP-92 16.9 µM | SF-268 17.3 µM | MCF7 16.8 µM | UO-31 18 µM | 786-0 18.6 µM
21.7 µM: HCT-15

Cc1ccc2c(=O)cc(-c3ccc(-c4ccccc4)s3)[nH]c2n1
inactive: PC-3 6.03 µM | U-251 16.4 µM | COLO 205 > 100 µM | MDA-MB-435 5.33 µM | NCI-H226 29.1 µM | OVCAR-8 > 58.3 µM | OVCAR-4 38.5 µM | SF-539 13 µM | SK-MEL-28 > 100 µM | HT-29 > 100 µM | LOX IMVI > 48.3 µM | SK-OV-3 44.5 µM | SW-620 > 31.5 µM | CAKI-1 45 µM | HOP-92 > 41.2 µM | SF-268 > 63 µM | MCF7 3.27 µM | 786-0 16.1 µM
active: UO-31 0.0305 µM
> 28.8 µM: HCT-15

COCn1cnc2c(=O)n(-c3ccc(C)cc3)c(=S)n(-c3ccc(C)cc3)c21
> 100 µM: HCT-15
inactive: PC-3 > 100 µM | U-251 > 100 µM | COLO 205 > 100 µM | MDA-MB-435 > 100 µM | NCI-H226 > 100 µM | OVCAR-8 > 100 µM | OVCAR-4 > 100 µM | SF-539 > 100 µM | SK-MEL-28 > 100 µM | HT-29 > 100 µM | LOX IMVI > 100 µM | SK-OV-3 > 100 µM | SW-620 > 100 µM | CAKI-1 > 100 µM | HOP-92 71.8 µM | SF-268 > 100 µM | MCF7 > 100 µM | UO-31 38.6 µM | 786-0 > 100 µM

CCOC(=O)c1c(NC(=O)OC)c(C#N)c2n1CCCCC2
inactive: PC-3 > 100 µM | U-251 > 100 µM | COLO 205 > 100 µM | MDA-MB-435 > 100 µM | NCI-H226 > 100 µM | OVCAR-8 > 100 µM | OVCAR-4 > 100 µM | SF-539 > 100 µM | SK-MEL-28 > 100 µM | HT-29 > 100 µM | LOX IMVI > 100 µM | SK-OV-3 > 100 µM | SW-620 > 100 µM | CAKI-1 > 100 µM | HOP-92 93.3 µM | SF-268 > 100 µM | MCF7 > 100 µM | UO-31 > 100 µM | 786-0 > 100 µM
> 100 µM: HCT-15

CSc1c(C#N)c(N)nc2c(/N=N\c3ccc(Br)cc3)c(N)nn12
3.5 µM: HCT-15
inactive: PC-3 8.3 µM | U-251 6.58 µM | COLO 205 10 µM | MDA-MB-435 9.66 µM | NCI-H226 21.5 µM | OVCAR-8 5.85 µM | OVCAR-4 7.21 µM | SF-539 9.18 µM | SK-MEL-28 10.7 µM | HT-29 9.53 µM | LOX IMVI 1.96 µM | SK-OV-3 21.2 µM | SW-620 5.64 µM | CAKI-1 12.6 µM | HOP-92 6.81 µM | SF-268 5.82 µM | MCF7 3.16 µM | UO-31 14.8 µM | 786-0 6.17 µM

CC(C)Oc1cccc(N2C(NCCc3c[nH]c4ccccc34)=Nc3ccncc3S2(=O)=O)c1
4.98 µM: HCT-15
inactive: PC-3 6.4 µM | U-251 17.9 µM | COLO 205 1.79 µM | MDA-MB-435 25.8 µM | NCI-H226 > 100 µM | OVCAR-8 57.4 µM | OVCAR-4 8 µM | SF-539 33.7 µM | SK-MEL-28 8.43 µM | HT-29 5.01 µM | LOX IMVI 52.1 µM | SK-OV-3 > 100 µM | SW-620 8.36 µM | CAKI-1 42.1 µM | HOP-92 8.45 µM | SF-268 15.7 µM | MCF7 4.73 µM | UO-31 81.8 µM | 786-0 2.09 µM

C1=Cc2ccccc2C1.C=C(C)c1ccccc1.[N-]=[N+]=Nc1ccccc1
> 100 µM: HCT-15
inactive: PC-3 > 100 µM | U-251 71.3 µM | COLO 205 > 100 µM | MDA-MB-435 70.6 µM | NCI-H226 52.1 µM | OVCAR-8 > 100 µM | OVCAR-4 > 100 µM | SF-539 > 100 µM | SK-MEL-28 > 100 µM | HT-29 42.7 µM | LOX IMVI > 100 µM | SK-OV-3 > 100 µM | SW-620 67.3 µM | CAKI-1 > 100 µM | HOP-92 47.1 µM | SF-268 > 100 µM | MCF7 31.3 µM | UO-31 > 100 µM | 786-0 > 100 µM

COC1CC(C)(NC(C)=O)C2OC(c3ccccc3)OCC2O1 (stereo not given)
> 100 µM: HCT-15
inactive: PC-3 > 100 µM | U-251 > 100 µM | COLO 205 > 100 µM | MDA-MB-435 > 100 µM | NCI-H226 > 100 µM | OVCAR-8 > 100 µM | OVCAR-4 > 100 µM | SF-539 > 100 µM | SK-MEL-28 > 100 µM | HT-29 > 100 µM | LOX IMVI > 100 µM | SK-OV-3 > 100 µM | SW-620 > 100 µM | CAKI-1 > 100 µM | HOP-92 > 100 µM | SF-268 > 100 µM | MCF7 > 100 µM | UO-31 > 100 µM | 786-0 > 100 µM

CN(C)c1ccc(/C=C/c2cc[n+](C)c3ccccc23)cc1
inactive: PC-3 1.73 µM | U-251 2.75 µM | COLO 205 1.36 µM | MDA-MB-435 2.03 µM | NCI-H226 2.53 µM | OVCAR-8 1.53 µM | OVCAR-4 5.05 µM | SF-539 5.56 µM | SK-MEL-28 5.32 µM | HT-29 2.04 µM | LOX IMVI 3.48 µM | SK-OV-3 5.81 µM | SW-620 2.44 µM | CAKI-1 2.79 µM | HOP-92 2.96 µM | SF-268 6.1 µM | MCF7 2.29 µM | UO-31 23.8 µM | 786-0 4.27 µM
29.9 µM: HCT-15

COC1=CC(=O)c2c(O)c3c(c(O)c2C1=O)CC(C)(O)OC3 (stereo not given) [FUSARUBIN]
inactive: PC-3 2.52 µM | U-251 3.08 µM | MDA-MB-435 1.65 µM | NCI-H226 15.7 µM | OVCAR-8 2.34 µM | OVCAR-4 1.4 µM | SF-539 3.33 µM | SK-MEL-28 6.11 µM | HT-29 2.12 µM | LOX IMVI 2.59 µM | SK-OV-3 18.2 µM | SW-620 3.75 µM | CAKI-1 3.73 µM | HOP-92 2.88 µM | SF-268 3.85 µM | MCF7 1.34 µM | UO-31 3.97 µM | 786-0 5.51 µM
active: COLO 205 0.897 µM
1.58 µM: HCT-15

C/C(=C\COP(=O)(O)OP(=O)(O)O)CC/C=C(\C)CNc1ccc([N+](=O)[O-])cc1
inactive: PC-3 > 100 µM | U-251 > 100 µM | COLO 205 > 100 µM | MDA-MB-435 > 100 µM | NCI-H226 > 100 µM | OVCAR-8 > 100 µM | OVCAR-4 > 100 µM | SF-539 > 100 µM | SK-MEL-28 > 100 µM | HT-29 > 100 µM | LOX IMVI > 100 µM | SK-OV-3 > 100 µM | SW-620 > 100 µM | CAKI-1 > 100 µM | HOP-92 > 100 µM | SF-268 > 100 µM | MCF7 > 100 µM | UO-31 > 100 µM | 786-0 > 100 µM
> 100 µM: HCT-15
